Where two headings read alike, the source gives them in different places. Where a SMILES comes first, the peptide text is derived from it. [ ]: non-standard residue; d: D form. d(β3hP) = O=C(O)C[C@H]1CCCN1; β3hP = O=C(O)C[C@@H]1CCCN1
How the values were obtained:
μ-opioid receptor [1] = target: T1, μ-opioid receptor (Homo sapiens, UniProt P35372); assay: Radioligand competition binding, displacement of [3H]DAMGO; settings: for Selectivity Kiδ/Kiμ: ratio of δ and μ binding Ki
κ-opioid receptor = κ-opioid receptor (Homo sapiens, UniProt P41145); assay: Radioligand competition binding, displacement of [3H]U69,593
δ-opioid receptor [2] = target: T2, δ-opioid receptor (Homo sapiens, UniProt P41143); assay: Radioligand competition binding, displacement of [3H]DPDPE
δ-opioid receptors (MVD) = δ-opioid receptors (MVD) (Mus musculus, UniProt P32300); assay: MVD in vitro tissue bioassay; type: biochemical
μ-opioid receptors (GPI) = assay: GPI/LMMP in vitro tissue bioassay; type: biochemical, guinea pig; settings: read-out: Bioassay GPI (IC50); ± S.E.M.
δ-opioid receptor [3] = target: T2, δ-opioid receptor; settings: read-out: Receptor affinity Kiδ; cited from earlier work
μ-opioid receptor [4] = target: T1, μ-opioid receptor; settings: ratio of δ and μ binding Ki; cited from earlier work

Compound | Ki (μ-opioid receptor [1]) [µM] | Ki (κ-opioid receptor) [µM] | Ki (δ-opioid receptor [2]) [µM] | Selectivity Kiδ/Kiμ (μ-opioid receptor [1]) | Bioassay MVD, % at 1 μM (δ-opioid receptors (MVD)) [% at 1 μM] | IC50 (μ-opioid receptors (GPI)) [µM] | Ki (δ-opioid receptor [3]) [µM] | Selectivity Kiδ/Kiμ (μ-opioid receptor [4])
NC(=O)[C@H](Cc1ccccc1)NC(=O)[C@H](Cc1ccccc1)NC(=O)C[C@@H]1CCCN1C(=O)[C@@H](N)Cc1ccc(O)cc1 [Compound 6a, H–Tyr–(S)-HPro–Phe–Phe–NH2] | 0.058 ± 0.005 | 0.99 ± 0.012 | – | – | – | – | – | –
NC(=O)[C@H](Cc1ccccc1)NC(=O)[C@H](Cc1ccccc1)NC(=O)C[C@H]1CCCN1C(=O)[C@@H](N)Cc1ccc(O)cc1 [Compound 6b, H–Tyr–(R)-HPro–Phe–Phe–NH2] | 0.293 ± 0.027 | 10 ± 1.2 | > 10 | > 34 | – | – | – | –
NC(=O)[C@H](Cc1ccccc1)NC(=O)[C@H](Cc1ccccc1)NS(=O)(=O)C[C@@H]1CCCN1C(=O)[C@@H](N)Cc1ccc(O)cc1 [Compound 6c, H–Tyr–(S)-HPrs–Phe–Phe–NH2] | 0.1 ± 0.008 | 4.8 ± 0.367 | – | – | – | – | – | –
NC(=O)[C@@H]1CCCN1C(=O)[C@H](Cc1ccccc1)NC(=O)C[C@@H]1CCCN1C(=O)[C@@H](N)Cc1ccc(O)cc1 [Compound 7a, H–Tyr–(S)-HPro–Phe–Pro–NH2] (H-Y[β3hP]FP-NH2) | 6.1 ± 0.553 | 4.4 ± 0.356 | > 10 | – | 33.7 | 1.1 ± 0.115 | – | –
NC(=O)[C@@H]1CCCN1C(=O)[C@H](Cc1ccccc1)NC(=O)C[C@H]1CCCN1C(=O)[C@@H](N)Cc1ccc(O)cc1 [Compound 7b, H–Tyr–(R)-HPro–Phe–Pro–NH2] (H-Y[d(β3hP)]FP-NH2) | 0.03 ± 0.004 | 10 ± 0.982 | > 10 | > 333 | – | 0.017 ± 0.003 | – | –
Tyr–Pro–Phe–Pro–NH2 (YPFP) [Morphyceptin] | – | – | – | – | – | – | > 10 | –
Tyr–Pro–Phe–Pro–NH2 [Morphyceptin] | – | – | – | – | – | – | – | > 74.1
